What all share (test): In vitro cytotoxicity GI50, Example 48
Assay type in all cases: cell-based

The test system of one assay is H460 (NSCLC). Conditions: Homo sapiens, NCI-H460; H460; Alamar Blue or Sulfarhodamine B; read-out: GI50.
A further assay deals with HCT-15 (COLON). The conditions noted are these: Homo sapiens, Alamar Blue or Sulfarhodamine B. In general terms: Resazurin is reduced to fluorescent resorufin, in cell work by metabolically active cells.
The next assay relates to HCT-116 (COLON). The conditions noted are these: Homo sapiens, HCT-116, HCT-116; Alamar Blue or Sulfarhodamine B. How it is done:
The study was performed using either Alamar Blue or Sulfarhodamine B assays.

In another assay the test system is SKOV-3 (OVARIAN). Conditions: Homo sapiens, SK-OV-3, Alamar Blue or Sulfarhodamine B.
A further assay has as its system HT-29 (COLON). Conditions: Homo sapiens, Alamar Blue or Sulfarhodamine B.

The results in this text go back to patent US20080045559A1, “TOCOPHEROL-MODIFIED THERAPEUTIC DRUG COMPOUNDS” (SONUS PHARMACEUTICALS, INC., priority 2003, published 2008).

Broadly, the GI50 is the concentration giving 50% growth inhibition.

Structures are written as SMILES.

On to `CC[C@@]1(O)C(=O)OCc2c1cc1n(c2=O)Cc2cc3cc(OC(=O)CCC(=O)Oc4c(C)c(C)c5c(c4C)CC[C@@](C)(CCC[C@H](C)CCC[C@H](C)CCCC(C)C)O5)ccc3nc2-1` [VESA-10-HO-CPT, Butanedioic acid, (2R)-3,4-dihydro-2,5,7,8-tetramethyl-2-[(4R,8R)-4,8,12-trimethyltridecyl]-2H-1-benzopyran-6-yl (4S)-4-ethyl-3,4,12,14-tetrahydro-4-hydroxy-3,14-dioxo-1H-pyrano[3′,4′:6,7]indolizino[1,2-b]quinolin-9-yl ester], for which the GI50 is 155 nM with H460 (NSCLC), 1290 nM in the assay with HCT-15 (COLON), 186 nM in the assay with HCT-116 (COLON) and 97.7 nM with SKOV-3 (OVARIAN).
On to `CCc1c2c(nc3ccc(OC(=O)CC4(CC(=O)Oc5c(C)c(C)c6c(c5C)CC[C@@](C)(CCC[C@H](C)CCC[C@H](C)CCCC(C)C)O6)CCCC4)cc13)-c1cc3c(c(=O)n1C2)COC(=O)[C@]3(O)CC` [d-α-Tocopherol-3,3-tetramethyleneglutarate-7-ethyl-10-hydroxycamptothecin], for which the GI50 in the assay on H460 (NSCLC) came out at 560 nM; with HCT-116 (COLON), 214 nM; with HT-29 (COLON), 48 nM.
